The text below walks through data of ChEMBL document CHEMBL5029144, “Positional Isomeric Effects on the Optical Properties, Multivalent Glycosidase Inhibition Effect, and Hypoglycemic Effect of Perylene Bisimide-deoxynojirimycin Conjugates” (J Med Chem, 2021).

SMILES strings stand for the structures.

Series [1] can be described thus: Toxicity in C57BL-6J mouse assessed as increase in body weight at 2 mg/kg, po measured upto 30 days. In kind it is organism-based. The note with it: in vivo, 720 h, time <=30 day.
The target in series [2] is T1, Alpha-mannosidase (Canavalia ensiformis) (UniProt C0HJB3).
T1 sequence (whole entry): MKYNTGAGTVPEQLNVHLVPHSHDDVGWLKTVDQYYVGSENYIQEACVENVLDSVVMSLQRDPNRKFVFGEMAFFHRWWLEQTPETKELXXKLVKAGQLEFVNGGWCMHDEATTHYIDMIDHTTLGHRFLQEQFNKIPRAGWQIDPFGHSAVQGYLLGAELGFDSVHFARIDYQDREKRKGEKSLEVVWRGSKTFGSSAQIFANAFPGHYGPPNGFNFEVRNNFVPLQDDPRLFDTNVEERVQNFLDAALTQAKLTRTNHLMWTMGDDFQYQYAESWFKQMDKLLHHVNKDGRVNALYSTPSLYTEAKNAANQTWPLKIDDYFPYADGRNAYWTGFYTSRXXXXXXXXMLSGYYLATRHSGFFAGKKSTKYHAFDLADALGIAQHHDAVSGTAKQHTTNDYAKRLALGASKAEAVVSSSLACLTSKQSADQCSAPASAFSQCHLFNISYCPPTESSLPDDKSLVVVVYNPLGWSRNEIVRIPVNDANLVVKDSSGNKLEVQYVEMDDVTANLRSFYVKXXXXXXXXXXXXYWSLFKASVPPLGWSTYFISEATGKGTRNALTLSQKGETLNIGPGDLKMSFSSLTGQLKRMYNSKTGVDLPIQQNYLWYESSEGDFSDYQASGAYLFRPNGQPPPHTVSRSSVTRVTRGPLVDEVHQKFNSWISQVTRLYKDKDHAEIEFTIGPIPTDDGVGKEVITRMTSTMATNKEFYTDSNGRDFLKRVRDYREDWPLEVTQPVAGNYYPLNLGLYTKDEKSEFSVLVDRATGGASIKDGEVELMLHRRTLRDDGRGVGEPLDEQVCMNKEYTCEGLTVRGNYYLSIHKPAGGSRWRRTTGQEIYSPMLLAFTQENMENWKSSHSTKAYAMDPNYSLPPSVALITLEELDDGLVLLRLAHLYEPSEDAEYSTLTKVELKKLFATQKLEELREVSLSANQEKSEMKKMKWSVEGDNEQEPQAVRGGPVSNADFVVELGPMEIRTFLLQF
Briefly: Potency index, ratio of DNJ-1 Kd to test compound Kd for inhibition of Jack bean alpha-mannosidase.

The nature of series [3]: Toxicity in C57BL-6J mouse assessed as kidney pathological change at 2 mg/kg, po measured after 10 days by hematoxylin and eosin staining analysis. It counts as organism-based. The note with it: in vivo, 240 h, time 10 day.
A short description of series [4]: Toxicity in C57BL-6J mouse assessed as increase in body weight at 2 mg/kg, po measured after 10 days. The note with it: in vivo, 240 h, time 10 day. It counts as organism-based.
Series [5] can be described thus: Toxicity in C57BL-6J mouse assessed as lung pathological change at 2 mg/kg, po measured after 10 days by hematoxylin and eosin staining analysis. In kind it is organism-based. The note with it: in vivo, 240 h, time 10 day.
Series [6] can be described thus: Toxicity in C57BL-6J mouse assessed as spleen pathological change at 2 mg/kg, po measured after 10 days by hematoxylin and eosin staining analysis. It counts as organism-based. Conditions: in vivo, 240 h, time 10 day; call rule not given here.
The nature of series [7]: Toxicity in C57BL-6J mouse assessed as liver pathological change at 2 mg/kg, po measured after 10 days by hematoxylin and eosin staining analysis. It counts as organism-based. The note with it: in vivo, 240 h, time 10 day.
A short description of series [8]: Toxicity in C57BL-6J mouse assessed as heart pathological change at 2 mg/kg, po measured after 10 days by hematoxylin and eosin staining analysis. Conditions: in vivo, 240 h, time 10 day. In kind it is organism-based.
The subject of series [9] is Aspergillus niger. Briefly: Potency index, ratio of DNJ-1 Kd to test compound Kd for inhibition of Aspergillus niger alpha-glucosidase.
Series [10] is described as follows: Stability of the compound in pH 2 by UV-vis spectroscopy. In kind it is physicochemical. The note with it: buffer.
Series [11] can be described thus: Stability of the compound in pH 7 by UV-vis spectroscopy. In kind it is physicochemical. Conditions: buffer.
For series [12], the target named is T2, Alpha-mannosidase (Canavalia ensiformis, UniProt C0HJB3).
T2 sequence (C0HJB3 whole entry): T1 sequence (whole entry)
Briefly: Inhibition of jack bean alpha-mannosidase.

Series [13] is described as follows: Inhibition of Helix pomatia beta-mannosidase.
A short description of series [14]: Inhibition of green coffee beans alpha-galactosidase. On the set-up: species or system Coffea arabica.
The nature of series [15]: Inhibition of Escherichia coli beta-galactosidase.
The nature of series [16]: Inhibition of Aspergillus niger alpha-glucosidase.
Series [17] can be described thus: Inhibition of almond beta-glucosidase. On the set-up: species or system Prunus dulcis.
The target of series [18] is T1, Alpha-mannosidase (Canavalia ensiformis). Briefly: Potency index, ratio of miglitol Kd to test compound Kd for inhibition of Jack bean alpha-mannosidase.
The test system of the next series is Coffea arabica. Briefly: Potency index, ratio of miglitol Kd to test compound Kd for inhibition of Green coffee beans alpha-galactosidase.
Series [19] relates to Aspergillus niger. Briefly: Potency index, ratio of miglitol Kd to test compound Kd for inhibition of Aspergillus niger alpha-glucosidase.
Series [20] deals with T2, Alpha-mannosidase. Briefly: Inhibition of Jack bean alpha-mannosidase by Lineweaver-Burk plot.
The nature of series [21]: Inhibition of Green coffee beans alpha-galactosidase by Lineweaver-Burk plot. Also noted: species or system Coffea arabica.
Series [22] in a line: Inhibition of Aspergillus niger alpha-glucosidase by Lineweaver-Burk plot.
The subject of series [23] is Mus musculus. Briefly: Hypoglycemic effect in maltose treated po dosed C57BL-6J mouse assessed as reduction in postprandial blood glucose level measured upto 180 mins. It counts as functional, organism-based. Conditions: time min <=180.
For series [24], the system named is Mus musculus. Briefly: Hypoglycemic effect in maltose treated mouse C57BL-6J assessed as reduction in postprandial blood glucose level at 0.5 mg/kg, po measured after 15 mins. In kind it is functional. On the set-up: scale not given: the % may be the effect or the level left. The note with it: 0.25 h.
In series [25] the test system is Mus musculus. Briefly: Hypoglycemic effect in maltose treated mouse C57BL-6J assessed as reduction in postprandial blood glucose level at 1 mg/kg, po measured after 15 mins. In kind it is functional. Also noted: scale not given: the % may be the effect or the level left. Conditions: 0.25 h.
Series [26] concerns Mus musculus. Briefly: Hypoglycemic effect in maltose treated mouse C57BL-6J assessed as reduction in postprandial blood glucose level at 2 mg/kg, po measured after 15 mins. In kind it is functional. On the set-up: scale not given: the % may be the effect or the level left. Conditions: 0.25 h.
In series [27] the test system is Mus musculus. Briefly: Hypoglycemic effect in maltose treated mouse C57BL-6J assessed as reduction in postprandial blood glucose level at 0.5 mg/kg, po measured after 30 mins. In kind it is functional. Also noted: scale not given: the % may be the effect or the level left.
Series [28] has as its system Mus musculus. Briefly: Hypoglycemic effect in maltose treated mouse C57BL-6J assessed as reduction in postprandial blood glucose level at 1 mg/kg, po measured after 30 mins. It counts as functional. On the set-up: scale not given: the % may be the effect or the level left. The note with it: 0.5 h.
In series [29] the test system is Mus musculus. Briefly: Hypoglycemic effect in maltose treated C57BL-6J mouse assessed as reduction in postprandial blood glucose level at 2 mg/kg, po measured after 30 mins. In kind it is functional. Also noted: scale not given: the % may be the effect or the level left. The note with it: 0.5 h.
Series [30] can be described thus: (§1) Inhibition of mammalian Alpha-glucosidase (unknown origin) using PNPG as substrate pretreated for 20 mins followed by substrate addition measured after 26 mins.
The species entered for the next series is Homo sapiens. The description is as §1.

Regarding `O=C1c2cc(Cl)c3c4c(Oc5ccc(OCc6cn(CCCN7C[C@H](O)[C@@H](O)[C@H](O)[C@H]7CO)nn6)cc5)cc5c6c(cc(Oc7ccc(OCc8cn(CCCN9C[C@H](O)[C@@H](O)[C@H](O)[C@H]9CO)nn8)cc7)c(c7c(Cl)cc(c2c37)C(=O)N1Cc1cn(CCCN2C[C@H](O)[C@@H](O)[C@H](O)[C@H]2CO)nn1)c64)C(=O)N(Cc1cn(CCCN2C[C@H](O)[C@@H](O)[C@H](O)[C@H]2CO)nn1)C5=O`, the Activity entry is reported as “Toxic” in series [1]; “Non-Toxic” in series [3]; “Non-Toxic” in series [4]; “Non-Toxic” in series [5]; “Non-Toxic” in series [6]; “Non-Toxic” in series [7]. Also, the Activity result in [8] is “Non-Toxic”; in the series with Mus musculus [23] it was “Dose-Dependent Effect”; in the series on Mus musculus [24], 22.4%; in the series with Mus musculus [25] it was 29.2%; in the series with Mus musculus [26], 41.3%; in the series with Mus musculus [27], 15.2%. In addition, the values for the Activity in the series with Mus musculus [28] and with Mus musculus [29] were 20.8% and 37.4%, respectively. Also, the Ratio stood at 2310 in series [2]; 4.7 in the series on Aspergillus niger [9]; 876 in series [18]; 9.7 with Coffea arabica; 1.5 in the series with Aspergillus niger [19]. In addition, the Stability result in series [10] and in series [11] was “Stable” each time. Also, the Kd (usually the concentration at which binding is half-saturated) on Alpha-mannosidase [12] was 0.12 µM; in [13], “Not Active”; in series [14] (read-out: Kd), 1.43 µM; in series [15], “Not Active”; in series [16] it was 13.1 µM; in [17], “Not Active”. Moreover, the Ki (commonly a measure of affinity in units of concentration, obtained from inhibition or displacement) on Alpha-mannosidase [20] stood at 0.12 µM; in series [21] it was 1.43 µM; in series [22] it was 13.1 µM. In series [30], the IC50 (usually the concentration at which inhibition is half-maximal) was found to be 11.6 µM. For the same compound, in the series listed under Homo sapiens, the inhibition result is “Dose-Dependent Effect”.

Take `OCCN1C[C@H](O)[C@@H](O)[C@H](O)[C@H]1CO` [MIGLITOL]: the Kd result in [13] was “Not Active”; in series [14], “Not Active”; in [15], “Not Active”; in series [16], 20.6 µM; in series [17] it was “Not Active”. Besides, the Activity turned out to be 27.3% in the series on Mus musculus [25], 40.4% with Mus musculus [26] and 36.6% in the series on Mus musculus [29].

Take `O=C1c2cc(Cl)c3c4c(Cl)cc5c6c(cc(Oc7ccc(OCc8cn(CCCN9C[C@H](O)[C@@H](O)[C@H](O)[C@H]9CO)nn8)cc7)c(c7c(Oc8ccc(OCc9cn(CCCN%10C[C@H](O)[C@@H](O)[C@H](O)[C@H]%10CO)nn9)cc8)cc(c2c37)C(=O)N1Cc1cn(CCCN2C[C@H](O)[C@@H](O)[C@H](O)[C@H]2CO)nn1)c64)C(=O)N(Cc1cn(CCCN2C[C@H](O)[C@@H](O)[C@H](O)[C@H]2CO)nn1)C5=O`: the Activity entry in [1] is given as “Toxic”; in series [3], “Non-Toxic”; in series [4] it was “Non-Toxic”; in series [5], “Non-Toxic”; in [6] it was “Non-Toxic”; in series [7], “Non-Toxic”. The Activity entry in series [8] was “Non-Toxic”; with Mus musculus [23], “Dose-Dependent Effect”; with Mus musculus [24] it was 4%; in the series with Mus musculus [25], 11.3%; with Mus musculus [26] it was 22.2%. The Ratio amounted to 16300 in series [2]; 4.2 in the series on Aspergillus niger [9]; 6180 in series [18]; 7.2 in the series on Coffea arabica; 1.4 with Aspergillus niger [19]. For the same compound, the Stability result in series [10] and in [11] was “Stable” in each case. For the same compound, the Kd is 0.017 µM on Alpha-mannosidase [12]; “Not Active” in series [13]; 1.93 µM in series [14] (read-out: Kd); “Not Active” in [15]; 14.7 µM in series [16]; “Not Active” in [17]. Further, the Ki was 0.017 µM on Alpha-mannosidase [20], 1.03 µM in series [21] and 14.7 µM in series [22]. Besides, the IC50 in series [30] worked out at 14.4 µM. The inhibition entry in the series filed under Homo sapiens was “Dose-Dependent Effect”.

On to `OCc1cn(CCCN2C[C@H](O)[C@@H](O)[C@H](O)[C@H]2CO)nn1`, for which the Kd is 277 µM on Alpha-mannosidase [12]; “Not Active” in series [13]; “Not Active” in series [14]; “Not Active” in series [15]; 61.6 µM in [16]; “Not Active” in series [17].
